Data published in US20240270809A1, “ORAL GLP RECEPTOR AGONISTS” (priority 2020, published 2024).
Where two headings read alike, the source gives them in different places. Positions of bridges follow the written chain, without caps; N, C: chain ends. Non-standard residues stand in square brackets, D forms with d. Residues, ends and D or L forms follow the SMILES beside them. *: point of attachment. Malonyl(2,2-Me2,histaminyl) = CC(C)(C(=O)NCCc1cnc[nH]1)C(=O)*; Ala(1H-tetrazol-5-yl) = N[C@@H](Cc1nnn[nH]1)C(=O)O; αMeL = CC(C)C[C@](C)(N)C(=O)O; Nle = CCCC[C@H](N)C(=O)O; Aib = CC(C)(N)C(=O)O

Legend:
Format in all cases: cell-based
human GLP2 receptor = molecular target: T1, human GLP2 receptor (Homo sapiens, UniProt O95838); assay: cAMP accumulation assay, functional agonism of human GLP2 receptor; conditions: HEK cells infected with human GLP2 receptor BacMam virus, HTRF cAMP; for Emax: HEK293, read-out: Human GLP-2R agonist cAMP Emax; for EC50: read-out: Human GLP-2R agonist cAMP pEC50 (converted)
T1 construct: expressed in transfected cells; host or cells: HEK cells, BacMam virus transduction
T1 sequence (O95838 1-553): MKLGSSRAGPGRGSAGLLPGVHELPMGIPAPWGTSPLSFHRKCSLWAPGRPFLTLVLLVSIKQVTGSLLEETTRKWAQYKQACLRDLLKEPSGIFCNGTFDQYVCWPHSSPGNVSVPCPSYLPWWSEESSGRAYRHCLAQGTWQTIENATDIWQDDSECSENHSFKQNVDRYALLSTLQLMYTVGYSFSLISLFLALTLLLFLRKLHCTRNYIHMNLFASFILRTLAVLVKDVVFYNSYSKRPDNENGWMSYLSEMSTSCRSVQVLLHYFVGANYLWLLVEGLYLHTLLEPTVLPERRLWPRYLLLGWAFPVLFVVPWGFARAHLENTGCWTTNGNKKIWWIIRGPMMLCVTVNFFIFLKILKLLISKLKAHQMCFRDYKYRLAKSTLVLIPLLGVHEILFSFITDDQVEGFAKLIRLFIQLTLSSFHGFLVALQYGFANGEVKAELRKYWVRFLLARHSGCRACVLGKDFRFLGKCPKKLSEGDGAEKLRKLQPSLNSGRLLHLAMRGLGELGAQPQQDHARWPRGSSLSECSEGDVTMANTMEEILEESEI
Outline: (§1)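 HEK cells transduced for 24 hours with human GLP2 or GLP1 receptor BacMam virus were frozen, then stimulated with agonist in HBSS containing 0.5 mM IBMX. After 45 min at 37° C, cAMP was measured by HTRF after adding detection reagents in lysis buffer.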

mouse GLP1 receptor = molecular target: T2, mouse GLP1 receptor (Mus musculus, UniProt O35659); assay: cAMP accumulation assay, functional agonism of mouse GLP1 receptor
T2 construct: expressed in transfected cells; host or cells: HEK cells, transient transfection with GeneJuice
T2 sequence (O35659 22-463): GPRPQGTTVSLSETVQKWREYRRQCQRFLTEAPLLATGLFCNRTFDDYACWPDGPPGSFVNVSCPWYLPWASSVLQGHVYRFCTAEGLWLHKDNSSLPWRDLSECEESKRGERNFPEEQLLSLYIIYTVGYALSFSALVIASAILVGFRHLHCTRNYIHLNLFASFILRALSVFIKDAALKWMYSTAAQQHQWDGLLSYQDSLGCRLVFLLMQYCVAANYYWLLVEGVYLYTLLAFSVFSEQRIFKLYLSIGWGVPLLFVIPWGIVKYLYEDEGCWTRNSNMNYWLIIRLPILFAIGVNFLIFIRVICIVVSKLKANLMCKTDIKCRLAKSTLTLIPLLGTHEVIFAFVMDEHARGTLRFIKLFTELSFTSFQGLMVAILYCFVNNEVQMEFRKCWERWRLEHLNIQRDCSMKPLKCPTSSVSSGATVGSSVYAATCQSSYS
Protocol: CAMP production upon agonist stimulation of mouse GLP2 or GLP1 receptors was assessed utilizing HiRange cAMP kit (Cisbio). In brief, HEK cells were transiently transfected for 24 hours with cDNA using GeneJuice Transfection reagent (EMD Millipore) and frozen at −80° C. for later use in the assay. […] Cells were prepared in the assay buffer (HBSS (Lonza) supplemented with 0.5 mM IBMX (Tocris)). After 45 min incubation at 37° C., the reaction was stopped by addition of the HTRF detection reagents in the lysis buffer provided in the kit. Following 1-hour incubation at RT, plates were read on Pherastar FS (BMG Labtech, Inc.) using standard HTRF settings. Dotmatics Studies software was used for calculation of pEC50 values by fitting data to a four-parameter concentration response curve.

human GLP1 receptor = molecular target: T3, human GLP1 receptor (Homo sapiens, UniProt P43220); assay: cAMP accumulation assay, functional agonism of human GLP1 receptor; conditions: HEK cells infected with human GLP1 receptor BacMam virus, HTRF cAMP; for Emax: HEK293, read-out: Human GLP-1R agonist cAMP Emax; for EC50: read-out: Human GLP-1R agonist cAMP pEC50 (converted)
T3 construct: expressed in transfected cells; host or cells: HEK cells, BacMam virus transduction
T3 sequence (P43220 24-463): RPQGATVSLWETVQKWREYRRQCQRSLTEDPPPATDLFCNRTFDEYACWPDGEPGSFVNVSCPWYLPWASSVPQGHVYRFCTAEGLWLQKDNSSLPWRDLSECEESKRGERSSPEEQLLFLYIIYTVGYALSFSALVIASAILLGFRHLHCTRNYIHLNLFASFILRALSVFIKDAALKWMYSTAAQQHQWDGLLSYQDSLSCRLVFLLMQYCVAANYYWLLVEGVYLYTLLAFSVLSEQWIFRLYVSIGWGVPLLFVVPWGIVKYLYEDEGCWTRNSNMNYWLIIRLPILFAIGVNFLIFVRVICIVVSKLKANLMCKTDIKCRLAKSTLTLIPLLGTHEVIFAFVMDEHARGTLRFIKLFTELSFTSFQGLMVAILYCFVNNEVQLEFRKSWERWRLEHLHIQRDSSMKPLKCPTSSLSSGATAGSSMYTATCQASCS
Outline: as §1

mouse GLP2 receptor = molecular target: T4, mouse GLP2 receptor (Mus musculus, UniProt Q5IXF8); assay: cAMP accumulation assay, functional agonism of mouse GLP2 receptor
T4 construct: expressed in transfected cells; host or cells: HEK cells, transient transfection with GeneJuice
T4 sequence (Q5IXF8 1-512): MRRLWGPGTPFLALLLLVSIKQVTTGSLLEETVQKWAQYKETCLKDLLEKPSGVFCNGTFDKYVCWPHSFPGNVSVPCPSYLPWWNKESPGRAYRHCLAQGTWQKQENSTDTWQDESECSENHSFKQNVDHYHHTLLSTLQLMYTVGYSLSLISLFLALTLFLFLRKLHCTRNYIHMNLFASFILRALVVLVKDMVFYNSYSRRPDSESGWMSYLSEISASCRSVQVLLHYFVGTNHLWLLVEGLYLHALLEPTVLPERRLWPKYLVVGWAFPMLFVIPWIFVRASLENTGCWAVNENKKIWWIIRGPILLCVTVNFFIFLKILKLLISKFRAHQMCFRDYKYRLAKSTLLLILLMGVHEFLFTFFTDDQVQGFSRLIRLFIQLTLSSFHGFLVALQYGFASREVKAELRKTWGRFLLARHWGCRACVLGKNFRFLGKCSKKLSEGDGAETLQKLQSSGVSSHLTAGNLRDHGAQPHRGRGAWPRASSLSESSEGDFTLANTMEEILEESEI
Outline: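 Transiently transfected HEK cells (24 h, frozen, 8000/well) in HBSS with 0.5 mM IBMX exposed to compound concentration series for 45 min at 37 °C. cAMP measured by HTRF after lysis and 1 h at RT; pEC50 from four-parameter concentration-response fit.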

[1] = HEK293, HEK cells transiently transfected with mouse GLP1 receptor, HTRF cAMP, read-out: Mouse GLP-1R agonist cAMP Emax
[2] = HEK cells transiently transfected with mouse GLP1 receptor, HTRF cAMP, read-out: Mouse GLP-1R agonist cAMP pEC50 (converted)
[3] = HEK293, HEK cells transiently transfected with mouse GLP2 receptor, HTRF cAMP, read-out: Mouse GLP-2R agonist cAMP Emax
[4] = HEK cells transiently transfected with mouse GLP2 receptor, HTRF cAMP, read-out: Mouse GLP-2R agonist cAMP pEC50 (converted)
[5] = HEK293, read-out: Mouse GLP-1R agonist cAMP Emax
[6] = HEK293, read-out: Mouse GLP-2R agonist cAMP Emax

Compound | Emax (human GLP2 receptor) [%] | EC50 (human GLP2 receptor) [nM] | Emax (mouse GLP1 receptor; [1]) [%] | EC50 (mouse GLP1 receptor; [2]) [nM] | Emax (human GLP1 receptor) [%] | EC50 (human GLP1 receptor) [nM] | Emax (mouse GLP2 receptor; [3]) [%] | EC50 (mouse GLP2 receptor; [4]) [nM] | EC50 (mouse GLP1 receptor) [nM] | Emax (mouse GLP1 receptor; [5]) [%] | EC50 (mouse GLP2 receptor) [nM] | Emax (mouse GLP2 receptor; [6]) [%]
CCCC[C@H](NC(=O)[C@H](CCC(=O)O)NC(=O)[C@H](CC(=O)O)NC(=O)[C@H](CO)NC(=O)[C@H](Cc1ccccc1)NC(=O)[C@H](CO)NC(=O)CNC(=O)[C@H](CC(=O)O)NC(=O)C(C)(C)NC(=O)[C@@H](N)Cc1c[nH]cn1)C(=O)N[C@H](Cc1ccccc1)C(=O)N[C@H](C(=O)N[C@H](C(=O)N[C@@H](CC(C)C)C(=O)N[C@@H](CC(=O)O)C(=O)N[C@H]1CC(=O)NCCCC[C@@H](C(=O)N[C@@H](CC(=O)O)C(=O)N[C@@H](Cc2ccccc2)C(=O)N[C@H](C(=O)N[C@@H](CC(N)=O)C(=O)N[C@@H](Cc2c[nH]c3ccccc23)C(=O)N[C@@H](CC(C)C)C(=O)N[C@H](C(=O)N[C@@H](CCC(N)=O)C(=O)N[C@H](C(=O)N[C@@H](CCCCN)C(=O)N[C@H](C(=O)N[C@H](C(=O)N[C@@H](CC(=O)O)C(N)=O)[C@@H](C)O)[C@@H](C)CC)[C@@H](C)O)[C@@H](C)CC)[C@@H](C)CC)NC(=O)[C@H](C)NC(=O)[C@H](C)NC(=O)[C@H](CCCCN)NC1=O)[C@@H](C)CC)[C@@H](C)O [Example 92] (H-H[Aib]DGSFSDE[Nle][dF]TILDDKAAKDFINWLIQTKITD-NH2; lactam 16-20; N-terminus and C-terminus assumed) | 99.3 | 0.002 | 94.8 | 10 | 96.5 | 10 | 98.9 | 0.0126 | – | – | – | –
CCCC[C@H](NC(=O)[C@H](CCC(=O)O)NC(=O)[C@H](CC(=O)O)NC(=O)[C@H](CO)NC(=O)[C@H](Cc1ccccc1)NC(=O)[C@H](CO)NC(=O)CNC(=O)[C@H](Cc1nn[nH]n1)NC(=O)C(C)(C)C(=O)NCCc1c[nH]cn1)C(=O)N[C@H](Cc1ccccc1)C(=O)N[C@H](C(=O)N[C@H](C(=O)N[C@@H](CC(C)C)C(=O)N[C@@H](CC(=O)O)C(=O)N[C@H]1CCC(=O)NCCCC[C@@H](C(=O)N[C@@H](CC(=O)O)C(=O)N[C@@H](Cc2ccccc2)C(=O)N[C@H](C(=O)N[C@@H](CC(N)=O)C(=O)N[C@@H](Cc2c[nH]c3ccccc23)C(=O)N[C@@H](CC(C)C)C(=O)N[C@H](C(=O)N[C@@H](CCC(N)=O)C(=O)N[C@H](C(=O)N[C@@H](CCCCN)C(=O)N[C@H](C(=O)N[C@H](C(=O)N[C@@H](Cc2ccccc2)C(N)=O)[C@@H](C)O)[C@@H](C)CC)[C@@H](C)O)[C@@H](C)CC)[C@@H](C)CC)NC(=O)[C@H](C)NC(=O)[C@H](C)NC(=O)[C@H](CCCCN)NC1=O)[C@@H](C)CC)[C@@H](C)O [Example 96] ({Malonyl(2,2-Me2,histaminyl)}-[Ala(1H-tetrazol-5-yl)]GSFSDE[Nle][dF]TILDEKAAKDFINWLIQTKITF-NH2; lactam 14-18) | 101 | 0.00631 | – | – | 96.4 | 0.501 | – | – | 0.794 | 96.1 | 0.794 | 101
CCCC[C@H](NC(=O)[C@H](CCC(=O)O)NC(=O)[C@H](CC(=O)O)NC(=O)[C@H](CO)NC(=O)[C@H](Cc1ccccc1)NC(=O)[C@H](CO)NC(=O)[C@@H](C)NC(=O)[C@H](Cc1nn[nH]n1)NC(=O)C(C)(C)C(=O)NCCc1c[nH]cn1)C(=O)N[C@H](Cc1ccccc1)C(=O)N[C@H](C(=O)N[C@@](C)(CC(C)C)C(=O)N[C@@H](CC(C)C)C(=O)N[C@@H](CC(=O)O)C(=O)N[C@H]1CCC(=O)NCCCC[C@@H](C(=O)N[C@@H](CC(=O)O)C(=O)N[C@@H](Cc2ccccc2)C(=O)N[C@H](C(=O)N[C@H]2CCC(=O)NCCCC[C@@H](C(=O)N[C@H](C(=O)N[C@@H](CCCCN)C(N)=O)[C@@H](C)O)NC(=O)[C@H]([C@@H](C)CC)NC(=O)[C@H](CC(C)C)NC(=O)[C@H](Cc3c[nH]c4ccccc34)NC2=O)[C@@H](C)CC)NC(=O)[C@H](C)NC(=O)[C@H](C)NC(=O)[C@H](CCCCN)NC1=O)[C@@H](C)O [Example 117] ({Malonyl(2,2-Me2,histaminyl)}-[Ala(1H-tetrazol-5-yl)][dA]SFSDE[Nle][dF]T[αMeL]LDEKAAKDFIEWLIKTK-NH2; lactam 14-18, 22-26; C-terminus assumed) | 103 | 0.00316 | – | – | 94.7 | 0.126 | – | – | 0.0794 | 96.9 | 0.158 | 99.3
CCCC[C@H](NC(=O)[C@H](CCC(=O)O)NC(=O)[C@H](CC(=O)O)NC(=O)[C@H](CO)NC(=O)[C@H](Cc1ccccc1)NC(=O)[C@H](CO)NC(=O)[C@@H](C)NC(=O)[C@H](Cc1nn[nH]n1)NC(=O)C(C)(C)C(=O)NCCc1c[nH]cn1)C(=O)N[C@H](Cc1ccccc1)C(=O)N[C@H](C(=O)N[C@@](C)(CC(C)C)C(=O)N[C@@H](CC(C)C)C(=O)N[C@@H](CC(=O)O)C(=O)N[C@H]1CCC(=O)NCCCC[C@@H](C(=O)N[C@@H](CC(=O)O)C(=O)N[C@@H](Cc2ccccc2)C(=O)N[C@H](C(=O)N[C@H]2CCC(=O)NCCCC[C@@H](C(=O)N[C@H](C(=O)N[C@@H](CCCCN)C(=O)N[C@H](C(=O)N[C@H](C(=O)N[C@@H](Cc3ccccc3)C(N)=O)[C@@H](C)O)[C@@H](C)CC)[C@@H](C)O)NC(=O)[C@H]([C@@H](C)CC)NC(=O)[C@H](CC(C)C)NC(=O)[C@H](Cc3c[nH]c4ccccc34)NC2=O)[C@@H](C)CC)NC(=O)[C@H](C)NC(=O)[C@H](C)NC(=O)[C@H](CCCCN)NC1=O)[C@@H](C)O [Example 116] ({Malonyl(2,2-Me2,histaminyl)}-[Ala(1H-tetrazol-5-yl)][dA]SFSDE[Nle][dF]T[αMeL]LDEKAAKDFIEWLIKTKITF-NH2; lactam 14-18, 22-26 (inferred); C-terminus assumed) | 103 | 0.00794 | 95.5 | 0.2 | 94.4 | 0.316 | 99.9 | 0.316 | – | – | – | –
